Earlier results in US20070166321A1, “Compositions and Methods for Reducing Cholesterol and Inflammation” (priority 2006, published 2007).
“Also recorded” adds a separate entry of the source.

Columns and labels:
[1] = in vivo
[2] = tested on: 12-O-tetradecanoylphorbol-13 acetate (TPA) induced inflammation; details: for 50%-inflammation reduction index ID50: TPA-induced inflammation
[3] = not given; remark: listed apart in the source

SMILES	increase of cardiovascular disease [1] [fold]	solubility in water	50%-inflammation reduction index ID50 [2] [mg]	inhibition of TPA induced inflammation, potency comparison ([2]; compared with reference antiinflammatory drugs)	effect on glucose levels of non-diabetics [3]
CS(=O)(=O)c1ccc(C2=C(c3ccccc3)C(=O)OC2)cc1 [Vioxx]	~4				
C[C@H]1[C@H](C)CC[C@]2(C(=O)O)CC[C@]3(C)C(=CC[C@@H]4[C@@]5(C)C[C@@H](O)[C@H](O)C(C)(C)[C@@H]5CC[C@]43C)[C@H]12 [corosolic acid]		low solubility in water	0.03	potency similar to the antiinflammatory drug indomethasin; also recorded: potency similar to the antiinflammatory drugs indomethasin and hydrocortisone	does not significantly reduce glucose levels
C[C@]12CCC(=O)C=C1CC[C@@H]1[C@@H]2[C@@H](O)C[C@@]2(C)[C@H]1CC[C@]2(O)C(=O)CO [hydrocortisone]			0.03		
COc1ccc2c(c1)c(CC(=O)O)c(C)n2C(=O)c1ccc(Cl)cc1 [indomethacin]			0.3		
